From patent publication US20180371158A1, “PEPTIDOMIMETIC POLYMERS AS CONTROLLED RELEASE MATRICES FOR SMALL MOLECULES, BIOLOGICALS, SYNTHETIC OR SEMI-SYNTHETIC MACROMOLECULES” (priority 2015, published 2018)

Assay: Release study of two dyes from electrospun fiber mat immersed in PBS at 37° C., UV absorbance
Format: physicochemical
Method: 6.36 mg rhodamine B was dissolved in 20 mL PBS. 200 μL solution of this solution was taken and 1.8 mL PBS was added to achieve a 10× dilution. The solution was serially diluted from 100× to 1000×, and the corresponding absorbance of each was measured. Rhodamine B concentration vs absorbance was plotted.
The above solution was diluted to 30, 40, 50, 60, 70, 80, 90, 100, 150, 200× concentrations. UV absorbance was measured for each solution.
In a 20 mL scintillation vial, 2 cm×2 cm fiber mat of the polyester was immersed in 20 ml PBS. The vial was stored in 37° C. incubator. 2 mL PBS was removed at each time point and replaced with 2 mL fresh PBS, and UV absorbance was measured. These measurements were performed in triplicates. Dye release was calculated according to the UV absorbance standard curve.

cumulative release of dye from fiber mat (after day 55, fiber mat of p(mPhe-Keto-BocGlu) mixed with rhodamine B and coumarin dye): 17.0±3.2% | cumulative release of dye from fiber mat (after day 90, fiber mat of p(mPhe-Keto-BocGlu) mixed with rhodamine B and coumarin dye): 30.4±6.5% | cumulative release of dye from fiber mat (days 0-7, fiber mat of p(mPhe-Keto-BocGlu) mixed with rhodamine B and coumarin dye): 7.4±1.6%
SMILES: CCN(CC)c1ccc2c(-c3ccccc3C(=O)O)c3ccc(=[N+](CC)CC)cc-3oc2c1.[Cl-] [rhodamine B, Rhodamine B]
